Values joined by “and” are separate entries in the source; they are usually repeats but may differ in a detail not shown here. Identical values can stand only once. Inconclusive results and toxic doses are left out.

From PubChem BioAssay AID330 (DTP/NCI, 2004) come the findings set out here.

This assay relates to P388 leukemia ip, CD2F1 mice, survival T/C. Nature of the assay: NCI In Vivo Anticancer Drug Screen. Data for tumor model P388 Leukemia (intraperitoneal) in CD2F1 (CDF1) mice. The following applies: endpoint: median survival time, higher = longer survival. Put shortly: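 Mice carrying the transplanted tumor received test compound or vehicle. Survival was recorded in each group, and the value is the treated-group measurement divided by that of the vehicle-treated control group.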

[1] abbreviates: dose: 50.0 mg/kg/injection, schedule: Q01DX009 (ip), vehicle: saline with Tween-80.
[2] abbreviates: dose: 100.0 mg/kg/injection, schedule: Q01DX009 (ip), vehicle: saline with Tween-80.
Where [3] appears, read: dose: 100.0 mg/kg/injection, schedule: Q01DX009 (ip), vehicle: saline.
[4] abbreviates: dose: 200.0 mg/kg/injection, schedule: Q01DX009 (ip), vehicle: saline with Tween-80.
Setting [5] is: dose: 200.0 mg/kg/injection, schedule: Q01DX009 (ip), vehicle: saline.
Where [6] appears, read: dose: 50.0 mg/kg/injection, schedule: Q01DX009 (ip), vehicle: saline.

In the case of `CCCOSSOCCC`, the T/C was 103 % of control (dose: 25.0 mg/kg/injection, schedule: Q01DX009 (ip), vehicle: saline with Tween-80); 100 % of control under setting [1]; 99 % of control under setting [2].
As for `CNC(=O)OCc1nn(-c2ccc(Cl)cc2)c(C)c1COC(=O)NC`, the T/C runs as follows: (dose: 1.56 mg/kg/injection, schedule: Q01DX009 (ip), vehicle: distilled water + Tween-80) 103 % of control; (dose: 3.12 mg/kg/injection, schedule: Q01DX009 (ip), vehicle: distilled water + Tween-80) 100 % of control; (dose: 6.25 mg/kg/injection, schedule: Q01DX009 (ip), vehicle: distilled water + Tween-80) 97 % of control; (dose: 12.5 mg/kg/injection, schedule: Q01DX009 (ip), vehicle: distilled water + Tween-80) 101 % of control and 89 % of control and 95 % of control; (dose: 25.0 mg/kg/injection, schedule: Q01DX009 (ip), vehicle: distilled water + Tween-80) 93 % of control; (dose: 100.0 mg/kg/injection, schedule: Q01DX009 (ip), vehicle: distilled water + Tween-80) 101 % of control and 93 % of control. In addition, the T/C (dose: 200.0 mg/kg/injection, schedule: Q01DX009 (ip), vehicle: distilled water + Tween-80) was 102 % of control and 108 % of control.
Consider `O=C1S/C(=C2\C(=O)N(CN3CCOCC3)c3ccccc32)C(=O)N1CN1CCOCC1`, for which the T/C by setting is: (dose: 60.0 mg/kg/injection, schedule: Q01DX005 (ip), vehicle: Klucel (hydroxypropylcellulose) (HPC)) 100 % of control; (dose: 120.0 mg/kg/injection, schedule: Q01DX005 (ip), vehicle: Klucel (hydroxypropylcellulose) (HPC)) 108 % of control; (dose: 240.0 mg/kg/injection, schedule: Q01DX005 (ip), vehicle: Klucel (hydroxypropylcellulose) (HPC)) 108 % of control.
As to `C=CCn1nc(-c2ccccc2)c(-c2ccccc2)n1`, the T/C is 98 % of control (dose: 100.0 mg/kg/injection, schedule: Q04DX003 (ip), vehicle: saline with Tween-80); 95 % of control (dose: 200.0 mg/kg/injection, schedule: Q04DX003 (ip), vehicle: saline with Tween-80); 89 % of control (dose: 400.0 mg/kg/injection, schedule: Q04DX003 (ip), vehicle: saline with Tween-80).
On to `Cc1ccc2c(c1)C(=O)c1ccccc1/C2=C1\c2ccccc2C(=O)c2cc(C)ccc21`, for which the T/C runs as follows: (dose: 50.0 mg/kg/injection, schedule: Q01DX005 (ip), vehicle: Klucel + Tween-80) 105 % of control; (dose: 100.0 mg/kg/injection, schedule: Q01DX005 (ip), vehicle: Klucel + Tween-80) 89 % of control; (dose: 200.0 mg/kg/injection, schedule: Q01DX005 (ip), vehicle: Klucel + Tween-80) 89 % of control.
Take `CCN1CC2C3CCC(C)(O3)C2C1` (stereo not drawn): the T/C is, setting by setting: (dose: 50.0 mg/kg/injection, schedule: Q01DX005 (ip), vehicle: saline) 99 % of control; (dose: 100.0 mg/kg/injection, schedule: Q01DX005 (ip), vehicle: saline) 98 % of control; (dose: 200.0 mg/kg/injection, schedule: Q01DX005 (ip), vehicle: saline) 101 % of control.
Take `COc1ccc(CCN)cc1OC`: the T/C runs as follows: under setting [1], 100 % of control; under setting [2], 100 % of control; under setting [3], 108 % of control; under setting [4], 100 % of control; under setting [5], 106 % of control.
For the compound `NC(=O)C1CCCN1C(=O)C1CCCN(Cc2ccc(CN3CCCC(C(=O)N4CCCC4C(N)=O)C3)cc2)C1` (stereo not drawn), the T/C was 106 % of control (dose: 60.0 mg/kg/injection, schedule: Q01DX005 (ip), vehicle: saline) and 97 % of control (dose: 120.0 mg/kg/injection, schedule: Q01DX005 (ip), vehicle: saline).
Turning to `CSc1nc(SC)c2c(CNC(C)=O)cn(Cc3ccccc3)c2n1`, the T/C was 87 % of control (dose: 50.0 mg/kg/injection, schedule: Q01DX001 (ip), vehicle: saline with Tween-80); 86 % of control and 87 % of control (dose: 200.0 mg/kg/injection, schedule: Q01DX001 (ip), vehicle: saline with Tween-80).
Consider `COc1ccc2c(N)cccc2c1`, for which the T/C was 92 % of control under setting [6], 88 % of control under setting [3] and 95 % of control under setting [5].
Take `COc1ccc(/C=C/C2=C(C(=O)O)CCCO2)cc1`: the T/C was 103 % of control (dose: 100.0 mg/kg/injection, schedule: Q04DX002 (ip), vehicle: saline with Tween-80); 100 % of control (dose: 200.0 mg/kg/injection, schedule: Q04DX002 (ip), vehicle: saline with Tween-80); 90 % of control (dose: 400.0 mg/kg/injection, schedule: Q04DX002 (ip), vehicle: saline with Tween-80).
Turning to `Cc1cc(C(=O)O)nn1-c1ccc(S(=O)(=O)N2CCC(=O)N(C3CCCCC3)C2=S)cc1`, the T/C (dose: 50.0 mg/kg/injection, schedule: Q01DX005 (ip), vehicle: saline with Tween-80) was 95 % of control; the T/C (dose: 100.0 mg/kg/injection, schedule: Q01DX005 (ip), vehicle: saline with Tween-80) was 101 % of control; the T/C (dose: 200.0 mg/kg/injection, schedule: Q01DX005 (ip), vehicle: saline with Tween-80) was 101 % of control.
With `O=C(Nc1ccc(C2=NCCCN2)cc1)Nc1cccc(C(=O)Nc2ccc(C3=NCCCN3)cc2)c1`, the T/C reads like this: (dose: 1.5 mg/kg/injection, schedule: Q01DX009 (ip), vehicle: saline with Tween-80) 100 % of control; (dose: 3.0 mg/kg/injection, schedule: Q01DX009 (ip), vehicle: saline with Tween-80) 109 % of control; (dose: 12.5 mg/kg/injection, schedule: Q04DX003 (ip), vehicle: saline with Tween-80) 104 % of control; (dose: 16.5 mg/kg/injection, schedule: Q01DX009 (ip), vehicle: saline with Tween-80) 163 % of control; (dose: 25.0 mg/kg/injection, schedule: Q04DX003 (ip), vehicle: saline with Tween-80) 118 % of control; under setting [1], 90 % of control. In addition, the T/C (dose: 50.0 mg/kg/injection, schedule: Q04DX003 (ip), vehicle: saline with Tween-80) is 118 % of control.
Turning to `CN1CCN(CCCN2c3ccccc3Sc3cc(N4c5ccccc5Sc5ccc(C(F)(F)F)cc54)c(C(F)(F)F)cc32)CC1`, the T/C is, setting by setting: (dose: 100.0 mg/kg/injection, schedule: Q04DX003 (ip), vehicle: Klucel (hydroxypropylcellulose) (HPC)) 95 % of control; (dose: 200.0 mg/kg/injection, schedule: Q04DX003 (ip), vehicle: Klucel (hydroxypropylcellulose) (HPC)) 95 % of control; (dose: 400.0 mg/kg/injection, schedule: Q04DX003 (ip), vehicle: Klucel (hydroxypropylcellulose) (HPC)) 107 % of control.
As for `CCCCCCC(=O)CC(SCC)c1ccccc1` (stereo not drawn), the T/C was 106 % of control under setting [1], 113 % of control under setting [2] and 114 % of control under setting [4].
As for `CC(C)(CO)[C@@H](O)C(=O)NCCC(=O)O`, the T/C was 108 % of control under setting [6], 113 % of control under setting [3] and 106 % of control under setting [5].
With `Cn1c(=O)c2[nH]c(Cc3cccc(O)c3)nc2n(C)c1=O`, the T/C runs as follows: (dose: 25.0 mg/kg/injection, schedule: Q01DX009 (ip), vehicle: suspension in saline) 99 % of control; (dose: 50.0 mg/kg/injection, schedule: Q01DX009 (ip), vehicle: suspension in saline) 96 % of control; (dose: 100.0 mg/kg/injection, schedule: Q01DX009 (ip), vehicle: suspension in saline) 92 % of control and 93 % of control; (dose: 200.0 mg/kg/injection, schedule: Q01DX009 (ip), vehicle: suspension in saline) 104 % of control; (dose: 400.0 mg/kg/injection, schedule: Q01DX009 (ip), vehicle: suspension in saline) 91 % of control.
`Cc1ccc(S(=O)(=O)C23N=NC(C)(C)C2C2CC3C3CN=NC32)cc1` (stereo not drawn): the T/C runs as follows: (dose: 100.0 mg/kg/injection, schedule: Q01DX001 (ip), vehicle: Klucel (hydroxypropylcellulose) (HPC)) 103 % of control; (dose: 200.0 mg/kg/injection, schedule: Q01DX001 (ip), vehicle: Klucel (hydroxypropylcellulose) (HPC)) 109 % of control; (dose: 400.0 mg/kg/injection, schedule: Q01DX001 (ip), vehicle: Klucel (hydroxypropylcellulose) (HPC)) 102 % of control.
Regarding `CCCCCCCCC(=O)c1c(OC)oc(/C=N/NC(N)=O)cc1=O`, the T/C was 92 % of control (dose: 25.0 mg/kg/injection, schedule: Q01DX009 (ip), vehicle: Klucel (hydroxypropylcellulose) (HPC)); 89 % of control (dose: 50.0 mg/kg/injection, schedule: Q01DX009 (ip), vehicle: Klucel (hydroxypropylcellulose) (HPC)); 92 % of control (dose: 100.0 mg/kg/injection, schedule: Q01DX009 (ip), vehicle: Klucel (hydroxypropylcellulose) (HPC)); 91 % of control (dose: 200.0 mg/kg/injection, schedule: Q01DX009 (ip), vehicle: Klucel (hydroxypropylcellulose) (HPC)).
